{
  "source": "patent US20090011438A1",
  "about": "“Collagen VI and Cancer” (priority 2004, published 2009)",
  "assay_type_in_all_cases": "cell-based",
  "key": {"β-catenin": {"system": "β-catenin", "assay": "Metabolic labeling pulse/chase of β-catenin", "conditions": "MCF-7 cells, 30 μg/ml, chase 30 min to 2 hrs", "experimental": "(§1) FIG. 4 is graphs and a photograph showing that collagen VI stabilizes β-catenin and cyclin D1. […] A TCF/LEF luciferase reporter construct was transfected into MCF-7 cells and luciferase activity was analyzed after treatment either were vehicle (PBS; black bars), collagen VI (30 μg/ml; white bars) or collagen 1 (30 μg/ml; gray bars) in DME-BSA. […] The serum free medium used in the chase contained vehicle, collagen VI (30 μg/ml) or collagen 1 (30 μg/ml). After each time point, immunoprecipitations were performed for β-catenin and analyzed by SDS-PAGE followed by quantitation of β-catenin at each time point. […] MCF-7 cells were exposed for 3 hours to vehicle, human collagen VI (30 μg/ml) or collagen I (30 μg/ml). Cells were then lysed and analyzed for cyclin D1 by western blot analysis. […] Panel D is a photograph of a western blot showing that collagen VI acts in part through NG2 in MCF-7 cells to stabilize cyclin D1. […] Results are shown as the MEAN±SEM in all cases.\nMetabolic Labeling for β-catenin. MCF-7 cells, seeded in 6-well plates, were treated in methionine/cysteine deficient DMEM for 1 hour. […]\nCollagen VI prevents degradation of endogenous β-catenin in MCF-7 cells. […] To test this, β-catenin levels were monitored over the course of several hours after a pulse/chase reaction. […]"}, "Tcf/Lef": {"system": "Tcf/Lef", "assay": "TOP FLASH (Tcf/Lef) reporter luciferase assay", "conditions": "MCF-7 cells, 30 μg/ml, 12 hours, vs vehicle", "experimental": "as §1\nLuciferase Assays. […] Two days prior to the luciferase readout, cells were transiently transfected with the TOPFLASH (contains 4 Tcf/Lef binding elements) luciferase promoter construct as well as a thymidine kinase driven renilla luciferase construct as a transfection control vector (Promega, Madison, Wis.) (Albanese et al., 2003). […]"}, "cyclin D1": {"system": "cyclin D1", "assay": "Cyclin D1 levels by western blot", "conditions": "MCF-7 cells, treated five hours, vs vehicle", "experimental": "FIG. 4 is graphs and a photograph showing that collagen VI stabilizes β-catenin and cyclin D1. […] A TCF/LEF luciferase reporter construct was transfected into MCF-7 cells and luciferase activity was analyzed after treatment either were vehicle (PBS; black bars), collagen VI (30 μg/ml; white bars) or collagen 1 (30 μg/ml; gray bars) in DME-BSA. […] The serum free medium used in the chase contained vehicle, collagen VI (30 μg/ml) or collagen 1 (30 μg/ml). After each time point, immunoprecipitations were performed for β-catenin and analyzed by SDS-PAGE followed by quantitation of β-catenin at each time point. […] Cells were then lysed and analyzed for cyclin D1 by western blot analysis. […] Panel D is a photograph of a western blot showing that collagen VI acts in part through NG2 in MCF-7 cells to stabilize cyclin D1. […] Results are shown as the MEAN±SEM in all cases.\nImmunoblotting. Separation of proteins by sodium dodecyl sulfate (SDS)-poly acrylamide gel electrophoresis (PAGE) fluorography, and immunoblotting were performed as previously described (Scherer et al., 1994). […]\nCollagen VI increases cyclin D1 protein stability through NG2/CSPG. […] MCF-7 cells pretreated with the αNG2/CSPG antibody were exposed to collagen VI protein, and cyclin D1 levels were monitored. […]"}},
  "data": [
    {"substance": "collagen I: Human collagen I obtained from Collaborative Biomedical Products; comparison protein", "values": [
      {"measurement": "degradation of 35S-labeled β-catenin", "setting": "β-catenin", "result": "marginal stabilization"},
      {"measurement": "induction of Tcf/Lef activity", "setting": "Tcf/Lef", "result": "did not activate"},
      {"measurement": "cyclin D1 levels", "setting": "cyclin D1", "result": "no significant change"}
    ]}
  ]
}
